Results as given in patent US11186564B2, “Dual NAV1.2/5HT2a inhibitors for treating CNS disorders” (Sunovion Pharmaceuticals Inc., priority 2016, dated 2021).
Where a name gives a salt, the structure may show the parent alone. Read-outs that look alike come from different tables or passages of the source.

How the values were obtained:
[1] = target: human sodium channel NaV1.2 (Homo sapiens, UniProt Q99250); experiment: NaV1.2 inhibition, automated patch-clamp (Q-Patch HTX), slow inactivated state (state C); format: cell-based; conditions: hNaV1.2 CHO cells, slow inactivated state; for IC50: read-out: NaV1.2 IC50; for inhibition at 1 µM: 1 μM compound, read-out: NaV1.2 (% inh), 1 μM; for inhibition at 10 µM: 10 μM compound, read-out: NaV1.2 (% inh), 10 μM
Procedure, shortened: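 IC50 comes from a least-squares fit of percent inhibition, relative to vehicle, of current in the slow-inactivated state. That state is reached by a 10 s prepulse to −50 mV, then 15 ms at −90 mV, then a 5 ms test pulse to 0 mV. Human NaV1.2 in stable CHO K-1 cells, held at −100 mV, automated patch clamp.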

[2] = target: T1, recombinant human serotonin receptor 5-HT2A (Homo sapiens, UniProt P28223); experiment: 5-HT2A antagonist Ca2+ assay in CHO-K1 cells (method A aequorin luminescence / method B FLIPR fluorescence); format: cell-based; conditions: antagonist mode vs EC80 of reference agonist, method A or B
T1 construct: expressed in transfected cells; method B: loaded with Ca2+ dye
Procedure, shortened: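 IC50 was obtained by nonlinear regression of percent inhibition of the EC80 agonist Ca2+ response in CHO-K1 cells stably expressing human 5-HT2A. The readout was aequorin luminescence with agonist injected 15 min after compound (A), or Ca2+-dye fluorescence on FLIPR with serotonin as agonist (B).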

T1 sequence (P28223 whole entry): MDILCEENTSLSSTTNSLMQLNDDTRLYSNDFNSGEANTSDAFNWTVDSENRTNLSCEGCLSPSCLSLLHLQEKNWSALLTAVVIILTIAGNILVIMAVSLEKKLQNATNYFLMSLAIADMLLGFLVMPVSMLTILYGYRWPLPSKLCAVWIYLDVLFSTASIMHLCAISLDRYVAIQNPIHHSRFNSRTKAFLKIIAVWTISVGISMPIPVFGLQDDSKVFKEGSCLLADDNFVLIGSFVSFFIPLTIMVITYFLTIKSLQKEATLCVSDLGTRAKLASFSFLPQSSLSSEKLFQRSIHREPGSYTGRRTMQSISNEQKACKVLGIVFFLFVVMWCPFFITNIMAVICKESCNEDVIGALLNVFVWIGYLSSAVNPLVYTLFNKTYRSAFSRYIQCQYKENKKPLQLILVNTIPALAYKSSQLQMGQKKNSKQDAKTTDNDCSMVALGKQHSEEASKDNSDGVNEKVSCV
human sodium channel NaV1.2, sequence (Q99250 whole entry): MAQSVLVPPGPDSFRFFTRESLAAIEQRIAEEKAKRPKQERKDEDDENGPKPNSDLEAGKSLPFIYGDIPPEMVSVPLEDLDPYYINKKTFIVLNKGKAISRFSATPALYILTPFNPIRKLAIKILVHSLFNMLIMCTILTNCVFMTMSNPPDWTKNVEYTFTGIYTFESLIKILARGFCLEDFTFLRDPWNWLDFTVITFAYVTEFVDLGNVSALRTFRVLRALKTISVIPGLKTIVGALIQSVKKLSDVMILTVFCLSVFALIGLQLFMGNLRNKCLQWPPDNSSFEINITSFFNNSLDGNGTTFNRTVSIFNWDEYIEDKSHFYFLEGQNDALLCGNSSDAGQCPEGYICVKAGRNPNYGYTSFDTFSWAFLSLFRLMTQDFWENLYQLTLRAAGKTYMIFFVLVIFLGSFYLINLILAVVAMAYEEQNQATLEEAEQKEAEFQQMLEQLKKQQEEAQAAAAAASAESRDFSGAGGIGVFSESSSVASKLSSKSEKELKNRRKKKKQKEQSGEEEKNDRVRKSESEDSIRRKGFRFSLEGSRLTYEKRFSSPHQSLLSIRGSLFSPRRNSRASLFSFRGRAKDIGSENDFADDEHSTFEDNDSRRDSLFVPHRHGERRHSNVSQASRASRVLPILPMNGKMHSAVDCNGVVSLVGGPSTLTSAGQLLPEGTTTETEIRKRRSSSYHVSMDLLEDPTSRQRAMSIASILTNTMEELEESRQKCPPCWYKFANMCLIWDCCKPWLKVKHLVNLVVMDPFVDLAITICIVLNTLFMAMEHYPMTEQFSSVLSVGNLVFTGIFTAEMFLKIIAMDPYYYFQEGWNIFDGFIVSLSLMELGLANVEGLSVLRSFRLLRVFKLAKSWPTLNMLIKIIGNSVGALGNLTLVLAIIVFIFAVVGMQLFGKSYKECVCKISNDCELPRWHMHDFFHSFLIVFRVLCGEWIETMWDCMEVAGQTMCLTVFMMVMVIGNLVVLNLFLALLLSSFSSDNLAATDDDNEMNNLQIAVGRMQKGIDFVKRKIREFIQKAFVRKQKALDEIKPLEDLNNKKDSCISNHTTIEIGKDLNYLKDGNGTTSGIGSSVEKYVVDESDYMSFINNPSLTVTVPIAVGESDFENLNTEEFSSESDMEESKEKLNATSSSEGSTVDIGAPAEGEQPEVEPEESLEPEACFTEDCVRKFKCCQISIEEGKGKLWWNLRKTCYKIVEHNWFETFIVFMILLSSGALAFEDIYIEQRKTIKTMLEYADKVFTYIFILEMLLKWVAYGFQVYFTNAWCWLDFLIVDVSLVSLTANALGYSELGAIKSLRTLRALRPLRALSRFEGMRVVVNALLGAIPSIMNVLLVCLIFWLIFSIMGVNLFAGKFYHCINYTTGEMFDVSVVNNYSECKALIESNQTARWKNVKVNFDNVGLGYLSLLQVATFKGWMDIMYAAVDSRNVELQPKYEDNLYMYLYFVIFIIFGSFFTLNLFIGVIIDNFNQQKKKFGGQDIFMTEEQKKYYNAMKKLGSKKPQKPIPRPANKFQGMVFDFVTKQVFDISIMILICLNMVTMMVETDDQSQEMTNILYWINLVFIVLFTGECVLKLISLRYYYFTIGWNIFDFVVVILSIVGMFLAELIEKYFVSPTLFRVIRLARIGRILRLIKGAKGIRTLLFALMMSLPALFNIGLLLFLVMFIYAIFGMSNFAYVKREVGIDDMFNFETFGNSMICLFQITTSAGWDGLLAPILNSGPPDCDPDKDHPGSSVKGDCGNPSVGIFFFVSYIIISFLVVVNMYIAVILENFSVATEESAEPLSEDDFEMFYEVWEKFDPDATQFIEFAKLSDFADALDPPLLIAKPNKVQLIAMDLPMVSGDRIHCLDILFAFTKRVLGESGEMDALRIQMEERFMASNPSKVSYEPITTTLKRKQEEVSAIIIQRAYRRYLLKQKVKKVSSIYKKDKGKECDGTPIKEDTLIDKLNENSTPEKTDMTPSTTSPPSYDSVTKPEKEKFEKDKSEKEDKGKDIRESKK

Row | inhibition at 1 µM [1] [%] | inhibition at 10 µM [1] [%] | Compound | IC50 [1] [nM] | IC50 ([2]; read-out: 5HT2A IC50) [µM] | IC50 ([2]; 5HT2A IC50, μM) [µM]
1 | – | – | COc1ccccc1N1CCC2(CCN(CC3CCc4ccccc43)C2)C1 (stereo not shown) [Example 335, 2-((2,3-dihydro-1H-inden-1-yl)methyl)-7-(2-methoxyphenyl)-2,7-diazaspiro[4.4]nonane] | 120 | 0.04 | –
2 | – | – | Fc1ccc(OC2COC3(C2)CN(CC2CCc4ccccc42)C3)cc1 (stereo not shown) [Example 368, 2-((2,3-dihydro-1H-inden-1-yl)methyl)-7-(4-fluorophenoxy)-5-oxa-2-azaspiro[3.4]octane] | 380 | 0.15 | –
3 | 14 | – | O=C1c2ccccc2CN1CCN1CCC(Oc2ccc(F)cc2)CC1 [Example 187, 2-(2-(4-(4-fluorophenoxy)piperidin-1-yl)ethyl)isoindolin-1-one] | – | 0.07 | –
4 | 16 | – | O=C1c2ccccc2CCN1CCN1CCN(c2ccccc2)CC1 [Example 63, 2-(2-(4-phenylpiperazin-1-yl)ethyl)-3,4-dihydroisoquinolin-1(2H)-one] | – | 0.45 | –
5 | – | – | Cc1ccccc1OCC(O)CN1CCC(c2nc3ccccc3s2)CC1 (stereo not shown) [Example 91, 1-(4-(benzo[d]thiazol-2-yl)piperidin-1-yl)-3-(o-tolyloxy)propan-2-ol] | 170 | 0.02 | –
6 | – | 70 | O=C1c2ccccc2CCN1CCN1CC[C@H](Oc2ccc(F)cc2)C1 [Example 26, (S)-2-(2-(3-(4-fluorophenoxy)pyrrolidin-1-yl)ethyl)-3,4-dihydroisoquinolin-1(2H)-one] | – | 0.17 | –
7 | – | – | COc1cccc(OC2CCN(CCCN3CCc4ccccc4C3=O)CC2)c1 [Example 221, 2-(3-(4-(3-methoxyphenoxy)piperidin-1-yl)propyl)-3,4-dihydroisoquinolin-1(2H)-one] | 1000 | 0.98 | –
8 | – | 91 | Clc1ccccc1OCCN1CCN(c2nsc3ccccc23)CC1 [Example 69, 3-(4-(2-(2-chlorophenoxy)ethyl)piperazin-1-yl)benzo[d]isothiazole] | – | 0.003 | –
9 | – | 76 | COc1cccc(OC2CCN(CCN3CCCc4ccccc4C3=O)CC2)c1 [Example 205, 2-(2-(4-(3-methoxyphenoxy)piperidin-1-yl)ethyl)-2,3,4,5-tetrahydro-1H-benzo[c]azepin-1-one] | – | 0.45 | –
10 | -3 | – | O=C1c2cccnc2CN1CCN1CCC(Oc2ccc(F)cc2)CC1 [Example 186, 6-(2-(4-(4-fluorophenoxy)piperidin-1-yl)ethyl)-6,7-dihydro-5H-pyrrolo[3,4-b]pyridin-5-one] | – | 0.01 | –
11 | – | – | Fc1ccc(N2CCC3(CCN(CC4Cc5cccnc5C4)C3)C2)cc1 (stereo not shown) [Example 339, 2-((6,7-dihydro-5H-cyclopenta[b]pyridin-6-yl)methyl)-7-(4-fluorophenyl)-2,7-diazaspiro[4.4]nonane] | 2270 | 0.87 | –
12 | – | 14 | O=C1c2ccncc2CCN1CCN1CCC(Oc2ccc(F)cc2)CC1 [Example 203, 2-(2-(4-(4-fluorophenoxy)piperidin-1-yl)ethyl)-3,4-dihydro-2,6-naphthyridin-1(2H)-one] | – | 0.07 | –
13 | – | – | COc1ccc2c(c1)C(CN1CCC(Oc3ccc(F)cc3)CC1)CC2 (stereo not shown) [Example 113, 4-(4-fluorophenoxy)-1-((6-methoxy-2,3-dihydro-1H-inden-1-yl)methyl)piperidine hydrochloride] | 550 | 0.002 | –
14 | 35 | – | Fc1ccc(OC2CCN(CC3Cc4ccccc4C3)CC2)cc1 [Example 154, 1-((2,3-dihydro-1H-inden-2-yl)methyl)-4-(4-fluorophenoxy)piperidine] | – | 0.17 | –
15 | – | – | OC(COC1CCCCC1)CN1CCN(c2ccccc2)CC1 (stereo not shown) [Example 74, 1-(cyclohexyloxy)-3-(4-phenylpiperazin-1-yl)propan-2-ol] | 50800 | 0.06 | –
16 | -15 | – | Fc1ccc(OC2CCN(CC3Cc4ccncc4C3)CC2)cc1 (stereo not shown) [Example 158, 6-((4-(4-fluorophenoxy)piperidin-1-yl)methyl)-6,7-dihydro-5H-cyclopenta[c]pyridine] | – | 0.15 | –
17 | – | – | COc1ccc2c(c1)C(CN1CCC(OCc3ccccc3C)CC1)CC2 (stereo not shown) [Example 242, 1-((6-methoxy-2,3-dihydro-1H-inden-1-yl)methyl)-4-((2-methylbenzyl)oxy)piperidine] | 230 | 0.09 | –

Row | inhibition at 1 µM [1] [%] | inhibition at 10 µM [1] [%] | Compound | IC50 [1] [nM] | IC50 ([2]; read-out: 5HT2A IC50) [µM] | IC50 ([2]; 5HT2A IC50, μM) [µM]
18 | 0 | – | O=C1c2cc(Cl)ccc2CN1CCN1CCC(Oc2ccc(F)cc2)CC1 [Example 189, 6-chloro-2-(2-(4-(4-fluorophenoxy)piperidin-1-yl)ethyl)isoindolin-1-one] | – | 0.18 | –
19 | – | – | CO[C@H](CCN1CCC(Oc2ccccc2)CC1)c1ccccc1 [Example 229, (R)-1-(3-methoxy-3-phenylpropyl)-4-phenoxypiperidine] | 1080 | 0.03 | –
20 | 14 | – | COc1ccc2c(c1)C(CN1CCC[C@@H](Oc3ccc(F)cc3)C1)CC2 (stereo partly drawn) [Example 255, (3R)-3-(4-fluorophenoxy)-1-((6-methoxy-2,3-dihydro-1H-inden-1-yl)methyl)piperidine] | – | 0.36 | –
21 | – | – | Fc1ccc(OC2CCN(CCC3CCOc4ccccc43)CC2)cc1 (stereo not shown) [Example 183, 1-(2-(chroman-4-yl)ethyl)-4-(4-fluorophenoxy)piperidine] | 1590 | 0.04 | –
22 | – | – | c1ccc([C@H]2COC3(CCN(C[C@H]4CCc5ccccc54)CC3)C2)cc1 (single isomer, unassigned) [Compound 377] | 790 | 0.03 | –
23 | – | – | Fc1ccc(OC2COC3(C2)CN(CC2Cc4cccnc4C2)C3)cc1 (stereo not shown) [Example 370, 2-((6,7-dihydro-5H-cyclopenta[b]pyridin-6-yl)methyl)-7-(4-fluorophenoxy)-5-oxa-2-azaspiro[3.4]octane] | 2010 | 0.1 | –
24 | – | 53 | O[C@H](CCN1CCC(Oc2ccccc2)CC1)c1ccccc1 [Example 227, (R)-3-(4-phenoxypiperidin-1-yl)-1-phenylpropan-1-ol] | – | 0.14 | –
25 | – | – | OC(COC1CCCCC1)CN1CCCC2(CCN(c3ccccc3)C2)C1 (stereo not shown) [Example 356, 1-(cyclohexyloxy)-3-(2-phenyl-2,7-diazaspiro[4.5]decan-7-yl)propan-2-ol] | 610 | 0.25 | –
26 | – | – | c1ccc(O[C@H]2COC3(CCN(C[C@H]4CCc5ccccc54)CC3)C2)cc1 (single isomer, unassigned) [Compound 381] | 290 | 0.02 | –
27 | -2 | – | Fc1ccc(N2CCC3(CCN(CC4CCc5cccnc54)C3)C2)cc1 (stereo not shown) [Example 337, 2-((6,7-dihydro-5H-cyclopenta[b]pyridin-7-yl)methyl)-7-(4-fluorophenyl)-2,7-diazaspiro[4.4]nonane] | – | 0.45 | –
28 | 35 | – | Fc1ccc(OC2CCN(CCC3COCc4ccccc43)CC2)cc1 (stereo not shown) [Example 184, 4-(4-fluorophenoxy)-1-(2-(isochroman-4-yl)ethyl)piperidine] | – | 0.08 | –
29 | – | – | OC(COC1CCCCC1)CN1C[C@H]2CC[C@@H](C1)N2c1ccccc1 (stereo partly drawn) [Example 299, 1-(cyclohexyloxy)-3-((1R,5S)-8-phenyl-3,8-diazabicyclo[3.2.1]octan-3-yl)propan-2-ol] | 3570 | 1.72 | –
30 | – | – | c1ccc(O[C@H]2COC3(CCN(C[C@@H]4CCc5ccccc54)CC3)C2)cc1 (single isomer, unassigned) [Compound 382] | 1210 | 0.06 | –
31 | – | – | Fc1ccc(OC2CCCN(CC3COc4ccccc43)CC2)cc1 (stereo not shown) [Example 272, 1-((2,3-dihydrobenzofuran-3-yl)methyl)-4-(4-fluorophenoxy)azepane] | 830 | 0.01 | –
32 | 46 | – | COc1ccc2c(c1)C(CN1CC[C@H](Oc3ccccc3OC)C[C@@H]1C)CC2 (stereo partly drawn) [Example 104, (2S,4S)-1-((6-methoxy-2,3-dihydro-1H-inden-1-yl)methyl)-4-(2-methoxyphenoxy)-2-methylpiperidine] | – | 0.26 | –
33 | – | – | c1ccc2c(c1)CCC1(CCN(CC3COc4ccccc43)CC1)O2 (stereo not shown) [Example 409] | 2830 | 0.93 | –
34 | – | – | O[C@@H](COC1CCCCC1)CN1[C@@H]2CC[C@H]1CN(c1ccccc1)C2 [Example 288, (R)-1-(cyclohexyloxy)-3-((1R,5S)-3-phenyl-3,8-diazabicyclo[3.2.1]octan-8-yl)propan-2-ol] | 440 | – | 0.04

Row | Compound | inhibition at 1 µM [1] [%] | inhibition at 10 µM [1] [%] | IC50 [1] [nM] | IC50 ([2]; read-out: 5HT2A IC50) [µM] | IC50 ([2]; 5HT2A IC50, μM) [µM]
35 | O[C@@H](CO[C@H]1CCc2ccccc21)CN1CCC(Oc2ccc(F)cc2)CC1 [Example 238, (R)-1-(((S)-2,3-dihydro-1H-inden-1-yl)oxy)-3-(4-(4-fluorophenoxy)piperidin-1-yl)propan-2-ol] | 47 | – | – | 0.24 | –
36 | O[C@H](COc1ccccc1)CN1CCC2(CCc3ccccc3O2)CC1 [Example 440, (S)-1-phenoxy-3-(spiro[chromane-2,4′-piperidin]-1′-yl)propan-2-ol] | -8 | – | – | 0.08 | –
37 | O=C1Cc2ccccc2N1CCN1CCC(Oc2ccc(F)cc2)CC1 [Example 185, 1-(2-(4-(4-fluorophenoxy)piperidin-1-yl)ethyl)indolin-2-one] | 19 | – | – | – | 0.01
38 | OC(CO[C@@H]1CCc2ccccc21)CN1CC[C@H](Oc2ccc(F)cc2)C1 (stereo partly drawn) [Example 45, 1-(((R)-2,3-dihydro-1H-inden-1-yl)oxy)-3-((S)-3-(4-fluorophenoxy)pyrrolidin-1-yl)propan-2-ol] | – | 85 | – | 0.61 | –
